From ChEMBL document CHEMBL5050830, “Novel antibacterial compounds” (2013)
Calls of active or inactive are those of the source. The rule behind the calls is not given here.

Columns and labels:
[1] = system: HeLa; assay: Cytotoxicity against human HeLa cells at 10 uM assessed as change in cell shape and multiplication after 96 hrs; type: toxicity, cell-based
[2] = molecular target: T1, NAD kinase 1 (Listeria monocytogenes serovar 1/2a (strain ATCC BAA-679 / EGD-e), UniProt Q8Y8D7); assay: Inhibition of His-tagged Listeria monocytogenes NADK1 in presence of glucose-6-phosphate dehydrogenase and NADP measured by spectrophotometry method
T1 sequence (Q8Y8D7 whole entry): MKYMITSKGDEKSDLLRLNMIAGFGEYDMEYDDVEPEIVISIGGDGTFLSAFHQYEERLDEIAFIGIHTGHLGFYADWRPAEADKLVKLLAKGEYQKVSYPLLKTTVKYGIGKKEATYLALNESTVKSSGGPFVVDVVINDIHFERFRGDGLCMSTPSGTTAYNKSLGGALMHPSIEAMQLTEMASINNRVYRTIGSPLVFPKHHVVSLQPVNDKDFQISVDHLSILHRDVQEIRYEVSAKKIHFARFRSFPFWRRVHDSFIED

[3] = system: Staphylococcus aureus; assay: Antibacterial activity against Staphylococcus aureus S25 strain at 1 ug/ml assessed as decrease in number of colony forming units relative to control; type: functional, organism-based; details: dose 1.0 µg/ml
[4] = Inhibition of His-tagged Staphylococcus aureus NADK in presence of glucose-6-phosphate dehydrogenase and NADP measured by spectrophotometry method
[5] = system: Staphylococcus aureus; assay: Antibacterial activity against Staphylococcus aureus S25 strain at 8 ug/ml assessed as decrease in number of colony forming units relative to control; type: functional, organism-based; details: dose 8.0 µg/ml
[6] = system: Staphylococcus aureus; assay: Antibacterial activity against Staphylococcus aureus S25 strain at 10 ug/ml assessed as decrease in number of colony forming units relative to control; type: functional, organism-based; details: dose 10.0 µg/ml

SMILES	Activity [1]	Ki [2] [µM]	Activity [3]	Ki [4] [µM]	also measured
Nc1ncnc2c1ncn2[C@@H]1O[C@H](COCC#Cc2nc3c(N)ncnc3n2[C@@H]2O[C@H](CO)[C@@H](O)[C@H]2O)[C@@H](O)[C@H]1O	Non-Toxic	20	Active	15	
CN[C@H](CC(C)C)C(=O)N[C@H]1C(=O)N[C@@H](CC(N)=O)C(=O)N[C@H]2C(=O)N[C@H]3C(=O)N[C@H](C(=O)N[C@H](C(=O)O)c4cc(O)cc(O)c4-c4cc3ccc4O)[C@H](O)c3ccc(c(Cl)c3)Oc3cc2cc(c3O[C@@H]2O[C@H](CO)[C@@H](O)[C@H](O)[C@H]2O[C@H]2C[C@](C)(N)[C@H](O)[C@H](C)O2)Oc2ccc(cc2Cl)[C@H]1O					Activity [5]: Active
NC[C@H]1O[C@@H](n2c(Br)nc3c(N)ncnc32)[C@H](O)[C@@H]1O					IC50 [2]: 300 µM
NC[C@H]1O[C@@H](n2c(SCC(=O)NC[C@H]3O[C@@H](n4cnc5c(N)ncnc54)[C@H](O)[C@@H]3O)nc3c(N)ncnc32)[C@H](O)[C@@H]1O	Non-Toxic	30	Active	50	
Nc1ncnc2c1ncn2[C@@H]1O[C@H](CNCC#Cc2nc3c(N)ncnc3n2[C@@H]2O[C@H](CO)[C@@H](O)[C@H]2O)[C@@H](O)[C@H]1O	Non-Toxic				Activity [6]: Active
